The text below walks through data of patent publication US4892875A, “Substituted heterocyclylalkyl esters of 1,4-dihydropyridine-3,5-dicarboxylic acids” (Takeda Chemical Industries, Ltd., priority 1982, dated 1990).

Like-named read-outs stand apart in the source and are kept apart here.

Assay [1] concerns spontaneously hypertensive rats. Kind of assay: Renal blood flow increasing effect (renal circulation improving effect) in anesthetized male spontaneously hypertensive rats. Particulars: Rattus norvegicus, 0.01 mg/kg intravenous, * P < 0.05 vs control. It counts as in vivo. How it is done:
Male spontaneously hypertensive rats aged 10 to 11 weeks (3 to 6 animals per group) were anesthetized with pentobarbital and used. After laparotomy, an electromagnetic flowmeter probe (Narco) was fitted to the left renal artery and the renal blood flow was continuously recorded on a polygraph (Sanei Sokki K.K.). […] Each test compound was dissolved in polyethylene glycol 400 to prepare a stock solution. This stock solution was diluted five-fold with physiological saline and the dilution was intravenously administered to rats in a volume of 0.5 ml/kg body weight. The dosage was 0.01 mg/kg for all test compounds. The renal blood flow was measured over a period of 40 minutes following the medication. The values shown are: [formula]

For assay [2] the test system is unchanged. Nature of the assay: Antihypertensive action (systolic blood pressure, caudal artery) in male spontaneously hypertensive rats. It counts as in vivo, rat. Particulars: 10 mg/kg oral; for Change in blood pressure 1 hr. after treatment / Change in blood pressure 5 hrs. after treatment: after minus before medication, * P < 0.05 vs control; for Duration of antihypertensive effect: measured 1, 5, 8 and 24 hours after administration. How it is done:
Male spontaneously hypertensive rats aged 10 to 11 weeks were used (in groups of 3 to 6 individuals). […] Each test compound was suspended in a 5% solution of gum arabic and orally administered. The dosage was 10 mg/kg for all compounds. Animals in a control group was given the above solution of gum arabic only.

The mark [3] stands for this setting: 1 min, 1 minute, read-out: Change in renal blood flow, 1 Minute after medication.
[4] abbreviates: 20 min, 20 minutes, read-out: Change in renal blood flow, 20 Minutes after medication.
Setting [5] is: 40 min, 40 minutes, read-out: Change in renal blood flow, 40 Minutes after medication.

Take `COC(=O)C1=C(C)NC(C)=C(C(=O)OCCN2CCN(C(c3ccccc3)c3ccccc3)CC2)C1c1cccc([N+](=O)[O-])c1.Cl.Cl` (stereo not drawn) [Example 1, 2-(4-benzhydryl-1-piperazinyl)ethyl methyl 2,6-dimethyl-4-(3-nitrophenyl)-1,4-dihydropyridine-3,5-dicarboxylate dihydrochloride]: in assay [1] (setting [3]), the change in vivo at 0.01 mg/kg was determined as 10.4%. In assay [1] (setting [4]), the change in vivo at 0.01 mg/kg turned out to be 13.4%. The change in vivo at 0.01 mg/kg in assay [1] (setting [5]) was found to be 12.8%. Besides, in assay [2], the “Change in blood pressure 1 hr. after treatment” value is on record as -89 mmHg, the “Change in blood pressure 5 hrs. after treatment” value is given as -91 mmHg and the “Duration of antihypertensive effect” value is more than 24 h.

Consider `COC(=O)C1=C(C)NC(C)=C(C(=O)OCCN2CCN(C(c3ccccc3)c3ccccc3)CC2)C1c1cccc(Cl)c1Cl` (stereo not drawn) [Example 6, 2-(4-benzhydryl-1-piperazinyl)ethyl methyl 4-(2,3-dichlorophenyl)-2,6-dimethyl-1,4-dihydropyridine-3,5-dicarboxylate], for which, in assay [1] (setting [3]), the change in vivo at 0.01 mg/kg is 4.5%. In addition, in assay [1] (setting [4]), the change in vivo at 0.01 mg/kg came to 7.5%. Besides, in assay [1] (setting [5]), the change in vivo at 0.01 mg/kg worked out at 6%. In assay [2], the “Change in blood pressure 1 hr. after treatment” value was -30 mmHg, the “Change in blood pressure 5 hrs. after treatment” value is -33 mmHg and the “Duration of antihypertensive effect” value was in the range of 8 to 24 h.

As to `COC(=O)C1=C(C)NC(C)=C(C(=O)OCCN2CCN(C(c3ccc(F)cc3)c3ccc(F)cc3)CC2)C1c1cccc([N+](=O)[O-])c1` (stereo not drawn) [Example 8, 2-[4-(4,4'-difluorobenzhydryl)-1-piperazinyl]ethyl methyl 2,6-dimethyl-4-(3-nitrophenyl)-1,4-dihydropyridine-3,5-dicarboxylate], the change in vivo at 0.01 mg/kg in assay [1] (setting [3]) turned out to be 5.7%. The change in vivo at 0.01 mg/kg in assay [1] (setting [4]) was determined as 6.4%. Moreover, in assay [1] (setting [5]), the change in vivo at 0.01 mg/kg was 9.7%. In addition, in assay [2], the “Change in blood pressure 1 hr. after treatment” value is given as -96 mmHg, the “Change in blood pressure 5 hrs. after treatment” value is reported as -98 mmHg and the “Duration of antihypertensive effect” value is more than 24 h.

As for `COC(=O)C1=C(C)NC(C)=C(C(=O)OCCN2CCN(C(c3ccc(OC)cc3)c3ccc(OC)cc3)CC2)C1c1cccc([N+](=O)[O-])c1` (stereo not drawn) [Example 10, 2-[4-(4,4'-dimethoxybenzhydryl)-1-piperazinyl]ethyl methyl 2,6-dimethyl-4-(3-nitrophenyl)-1,4-dihydropyridine-3,5-dicarboxylate], in assay [1] (setting [3]), the change in vivo at 0.01 mg/kg came to 6.9%. In addition, in assay [1] (setting [4]), the change in vivo at 0.01 mg/kg turned out to be 8.3%. The change in vivo at 0.01 mg/kg in assay [1] (setting [5]) is 6.8%. In addition, in assay [2], the “Change in blood pressure 1 hr. after treatment” value is recorded as -88 mmHg, the “Change in blood pressure 5 hrs. after treatment” value was -57 mmHg and the “Duration of antihypertensive effect” value lay in the range of 8 to 24 h.

In the case of `COC(=O)C1=C(C)NC(C)=C(C(=O)OCCN2CCCN(C(c3ccccc3)c3ccccc3)CC2)C1c1cccc([N+](=O)[O-])c1` (stereo not drawn) [Example 15, 2-(4-benzhydrylhomopiperazin-1-yl)-ethyl methyl 2,6-dimethyl-4-(3-nitrophenyl)-1,4-dihydropyridine-3,5-dicarboxylate], the change in vivo at 0.01 mg/kg in assay [1] (setting [3]) was found to be 4.2%. Moreover, the change in vivo at 0.01 mg/kg in assay [1] (setting [4]) came out at 4.2%. In addition, in assay [1] (setting [5]), the change in vivo at 0.01 mg/kg was determined as 2.9%. In assay [2], the “Change in blood pressure 1 hr. after treatment” value is on record as -38 mmHg, the “Change in blood pressure 5 hrs. after treatment” value is reported as -18 mmHg and the “Duration of antihypertensive effect” value was in the range of 5 to 8 h.

`CCOC(=O)C1=C(C)NC(C)=C(C(=O)OCCN2CCN(c3ccc(F)cc3)CC2)C1c1cccc([N+](=O)[O-])c1` (stereo not drawn) [Example 41, ethyl 2-[4-(4-fluorophenyl)-1-piperazinyl]ethyl 2,6-dimethyl-4-(3-nitrophenyl)-1,4-dihydropyridine-3,5-dicarboxylate]: in assay [2], the “Change in blood pressure 1 hr. after treatment” value is reported as -55 mmHg, the “Change in blood pressure 5 hrs. after treatment” value is given as -67 mmHg and the “Duration of antihypertensive effect” value was “ca. 24 hrs”.

With `COC(=O)C1=C(C)NC(C)=C(C(=O)OCCN2CCN(c3ccc(F)cc3)CC2)C1c1cccc(Cl)c1Cl` (stereo not drawn) [Example 43, 2-[4-(4-fluorophenyl)-1-piperazinyl]ethyl methyl 4-(2,3-dichlorophenyl)-2,6-dimethyl-1,4-dihydropyridine-3,5-dicarboxylate], in assay [2], the “Change in blood pressure 1 hr. after treatment” value is reported as -54 mmHg, the “Change in blood pressure 5 hrs. after treatment” value is given as -44 mmHg and the “Duration of antihypertensive effect” value lay in the range of 8 to 24 h.

As to `COC(=O)C1=C(C)NC(C)=C(C(=O)OCCN2CCN(c3ccccc3Cl)CC2)C1c1cccc([N+](=O)[O-])c1` (stereo not drawn) [Example 44, 2-[4-(2-chlorophenyl)-1-piperazinyl]ethyl methyl 2,6-dimethyl-4-(3-nitrophenyl)-1,4-dihydropyridine-3,5-dicarboxylate], in assay [2], the “Change in blood pressure 1 hr. after treatment” value is recorded as -44 mmHg, the “Change in blood pressure 5 hrs. after treatment” value was -22 mmHg and the “Duration of antihypertensive effect” value is 8 to 24 h.

Take `COC(=O)C1=C(C)NC(C)=C(C(=O)OCCN2CCN(c3ccc(Cl)cc3)CC2)C1c1cccc([N+](=O)[O-])c1` (stereo not drawn) [Example 45, 2-[4-(4-chlorophenyl)-1-piperazinyl]ethyl methyl 2,6-dimethyl-4-(3-nitrophenyl)-1,4-dihydropyridine-3,5-dicarboxylate]: in assay [2], the “Change in blood pressure 1 hr. after treatment” value is listed as -57 mmHg, the “Change in blood pressure 5 hrs. after treatment” value was -42 mmHg and the “Duration of antihypertensive effect” value lay in the range of 8 to 24 h.

Regarding `COC(=O)C1=C(C)NC(C)=C(C(=O)OCCN2CCN(c3cccc(Cl)c3)CC2)C1c1cccc(Cl)c1Cl` (stereo not drawn) [Example 46], in assay [2], the “Change in blood pressure 1 hr. after treatment” value is given as -44 mmHg, the “Change in blood pressure 5 hrs. after treatment” value was -43 mmHg and the “Duration of antihypertensive effect” value lay within 8 to 24 h.

With `COC(=O)C1=C(C)NC(C)=C(C(=O)OCCN2CCN(c3ccc(Cl)cc3)CC2)C1c1cccc(Cl)c1` (stereo not drawn) [Example 50, 2-[4-(4-chlorophenyl)-1-piperazinyl]ethyl methyl 4-(3-chlorophenyl)-2,6-dimethyl-1,4-dihydropyridine-3,5-dicarboxylate], in assay [2], the “Change in blood pressure 1 hr. after treatment” value is on record as -58 mmHg, the “Change in blood pressure 5 hrs. after treatment” value was -37 mmHg and the “Duration of antihypertensive effect” value lay in the range of 8 to 24 h.

As for `COC(=O)C1=C(C)NC(C)=C(C(=O)OCCN2CCN(c3ccccc3C)CC2)C1c1cccc([N+](=O)[O-])c1` (stereo not drawn) [Example 51, methyl 2-[4-(2-methylphenyl)-1-piperazinyl]ethyl 2,6-dimethyl-4-(3-nitrophenyl)-1,4-dihydropyridine-3,5-dicarboxylate], in assay [2], the “Change in blood pressure 1 hr. after treatment” value is -69 mmHg, the “Change in blood pressure 5 hrs. after treatment” value is on record as -54 mmHg and the “Duration of antihypertensive effect” value fell in the range of 8 to 24 h.

On to `COC(=O)C1=C(C)NC(C)=C(C(=O)OCCN2CCN(c3ccccc3C)CC2)C1c1cccc(Cl)c1` (stereo not drawn) [Example 52, methyl 2-[4-(2-methylphenyl)-1-piperazinyl]ethyl 4-(3-chlorophenyl)-2,6-dimethyl-1,4-dihydropyridine-3,5-dicarboxylate], for which, in assay [2], the “Change in blood pressure 1 hr. after treatment” value is recorded as -54 mmHg, the “Change in blood pressure 5 hrs. after treatment” value is reported as -14 mmHg and the “Duration of antihypertensive effect” value is reported as “ca. 8 hrs”.

Consider `COC(=O)C1=C(C)NC(C)=C(C(=O)OCCN2CCN(c3ccccc3)CC2)C1c1cccc([N+](=O)[O-])c1` (stereo not drawn) [Example 53, methyl 2-(4-phenyl-1-piperazinyl)ethyl 2,6-dimethyl-4-(3-nitrophenyl)-1,4-dihydropyridine-3,5-dicarboxylate], for which, in assay [2], the “Change in blood pressure 1 hr. after treatment” value was -60 mmHg, the “Change in blood pressure 5 hrs. after treatment” value was -34 mmHg and the “Duration of antihypertensive effect” value is on record as “ca. 8 hrs”.

As to `COC(=O)C1=C(C)NC(C)=C(C(=O)OCCN2CCN(c3ccc(C)c(Cl)c3)CC2)C1c1cccc([N+](=O)[O-])c1` (stereo not drawn) [Example 57, 2-[4-(3-chloro-4-methylphenyl)-1-piperazinyl]ethyl methyl 2,6-dimethyl-4-(3-nitrophenyl)-1,4-dihydropyridine-3,5-dicarboxylate], in assay [2], the “Change in blood pressure 1 hr. after treatment” value was -85 mmHg, the “Change in blood pressure 5 hrs. after treatment” value is on record as -69 mmHg and the “Duration of antihypertensive effect” value was in the range of 8 to 24 h.

As to `COC(=O)C1=C(C)NC(C)=C(C(=O)OCCN2CCN(c3cccc(Cl)c3Cl)CC2)C1c1cccc([N+](=O)[O-])c1` (stereo not drawn) [Example 58, 2-[4-(2,3-dichlorophenyl)-1-piperazinyl]ethyl methyl 2,6-dimethyl-4-(3-nitrophenyl)-1,4-dihydropyridine-3,5-dicarboxylate], in assay [2], the “Change in blood pressure 1 hr. after treatment” value was -27 mmHg, the “Change in blood pressure 5 hrs. after treatment” value was -39 mmHg and the “Duration of antihypertensive effect” value lay in the range of 8 to 24 h.

Regarding `COC(=O)C1=C(C)NC(C)=C(C(=O)OCCN2CCN(C(c3ccccc3)c3ccccc3)CC2)C1c1cccc2nonc12.Cl.Cl` (stereo not drawn) [Example 60, 2-(4-benzhydryl-1-piperazinyl)ethyl methyl 4-(2,1,3-benzoxadiazol-4-yl)-2,6-dimethyl-1,4-dihydropyridine-3,5-dicarboxylate dihydrochloride], in assay [2], the “Change in blood pressure 1 hr. after treatment” value is -98 mmHg, the “Change in blood pressure 5 hrs. after treatment” value is recorded as -90 mmHg and the “Duration of antihypertensive effect” value fell in the range of 8 to 24 h.
